In patent publication US7238507B2, “Aspergillus ochraceus 11 alpha hydroxylase and oxidoreductase” (priority 2000, dated 2007):

Legend:
[1] = system: Aspergillus ochraceus spores; test: 11 α-hydroxylation of canrenone by A. ochraceus spores, media extract analysed by HPLC; assay type: cell-based; conditions: spores incubated approximately 26 hours at 30° C. with 0.1 g canrenone in 400 ml; data not shown
Experimental: Aspergillus ochraceus ATCC 18500 stock culture (50 ul) was grown for 3-4 days on plates containing sporulation medium: 50 g/L molasses, 5 g/L cornsteep liquid, 5 g/L KH2PO4, 25 g/L NaCl, 25 g/L glucose, 20 g/L agar, and 0.4 g/L progesterone, pH 5.8. Progesterone was included in the media to induce the steroid 11 α-hydroxylase. Spores were scraped from the plates into 5 to 7 ml saline, washed in saline, collected by centrifugation, and suspended in saline containing 15% glycerol. The spores were frozen on dry ice and stored at −80° C. Approximately 0.8 g spores were incubated at 30° C. in a 1 liter flask containing 400 ml 1% glucose, 50 mM KH2PO4 and 0.1 g canrenone, pH 7.0. This treatment prior to spore disruption has three benefits: (1) to induce the steroid 11 α-hydroxylase by incubation with canrenone; (2) to determine whether the spores were catalyzing the 11 α-hydroxylation of canrenone; (3) and to soften the spore wall. After approximately 26 hours of incubating with shaking at 30° C. to provide better aeration, the spores were collected by centrifugation. […]
Approximately 160 ml of media from the spore induction was extracted three times with 70 ml ethyl acetate to collect the steroid substrate and products. […] The residue was dissolved in 8 ml methanol so that the final concentration of canrenone was approximately 15 mM (assuming quantitative recovery). […]

[2] = system: Aspergillus ochraceus 11 alpha hydroxylase; test: HPLC assay of conversion of androstenedione to 11α-hydroxyandrostenedione by subcellular fractions of baculovirus-infected Sf9 cells co-expressing 11 alpha hydroxylase and human oxidoreductase; assay type: biochemical; conditions: 11 alpha hydroxylase co-expressed in Sf-9 insect cells with human oxidoreductase
Experimental: Microsomal and mitochondrial subcellular fractions were prepared from insect cells co-infected with recombinant baculoviruses expressing recombinant Aspergillus ochraceus 11 alpha hydroxylase and human oxidoreductase cloned from HepG2 cell RNA. The subcellular fractions were incubated with 250 μM androstenedione (AD) in the presence of an NADPH-generating system for 120 minutes, and the resulting products were separated by HPLC and monitored by ultraviolet detection at 247 nm. Hydroxlase activity was found in the microsomal fraction, as expected, but also appeared in the mitochondrial fraction. […] Panel A illustrates a reaction carried out using enzyme prepared from a mitochondrial fraction. The peak in panel A that elutes after AD appears to be testosterone. When a microsomal fraction was used, almost as much AD was converted to 11 alpha hydroxy AD, but relatively more testosterone was also produced. Panel B illustrates the same reaction carried out for 120 minutes without a source of enzyme. Panel C illustrates an HPLC tracing with 11α-hydroxyandrostenedione standard added to incubation buffer.
Sf9 cells were co-infected with virus particles that contained the steroid 11 alpha hydroxylase cDNA and a separate virus containing a human NADPH P450-oxidoreductase. Both viruses were added at a multiplicity of infection (MOI) ratio of 0.1:0.01 (11 aOH to oxr). […]

| SMILES | 11 α-hydroxylation of canrenone, HPLC of media extract monitored at 254 nm [1] | conversion of the steroid substrate to 11 alpha-hydroxy-AD as determined by HPLC analysis [2] |
| --- | --- | --- |
| C[C@]12CCC(=O)C=C1C=C[C@@H]1C2CC[C@@]2(C)C1CC[C@@]21CCC(=O)O1 (stereo partly drawn) [canrenone, Pregna-4,6-diene-21-carboxylic acid,17-hydroxy-3-oxo-,γ-lactone, (17α)-(9CI)] | exhibited a component with the same retention time as the 11 α-hydroxy canrenone standard |  |
| C[C@]12CCC(=O)C=C1CC[C@@H]1[C@@H]2CC[C@]2(C)C(=O)CC[C@@H]12 [AD, Androst-4-ene-3,17-dione(8CI,9CI)] |  | successfully catalyzed the conversion |
